Non-standard residues stand in square brackets, D forms with d. Residues, ends and D or L forms follow the SMILES beside them. *: point of attachment. Phenylacetyl(2,3,4,5,6-F5) = O=C(Cc1c(F)c(F)c(F)c(F)c1F)*; Phe(F5) = N[C@@H](Cc1c(F)c(F)c(F)c(F)c1F)C(=O)O; hArg = N=C(N)NCCCC[C@H](N)C(=O)O; 12Ado = NCCCCCCCCCCCC(=O)O; Nle = CCCC[C@H](N)C(=O)O; Orn = NCCC[C@H](N)C(=O)O; Abu = CC[C@H](N)C(=O)O
Key:
[1] = tested on: NCI-N87 stomach cancer cells; assay: In vitro cell viability (CellTiter 96), N87; type: cell-based, human; settings: Table 3B; 5 μM for 72 H; MIA-602 = 1
Method: The inhibitory effects of the various synthesized GHRH antagonists were tested in cell proliferation assays in various human cancer cell lines including stomach cancer (KATOIII, N87), colon cancer (HT-29), urothelial cancer (J82, RT4), pancreatic cancer (PANC-1, CFPAC-1), prostatic cancer (PC3), breast cancer (MX-1, HCC1806), ovarian cancer (SK-OV-3, OVCAR-3) and lung cancer (HCC827, H460).
Cell culture. Human cancer cell lines including pancreatic (PANC-1 and CFPAC-1), lung (HCC827 and H460), stomach (NCI-N87 and KATOIII), urothelial (J82, RT4), prostatic (PC3), breast (MX-1 and HCC 1806), colorectal (HT-29), and ovarian (SK-OV-3 and OVCAR-3) were obtained from the American Type Culture Collection (ATCC) and cultured at 37° C. in a humidified 95% air/5% CO2 atmosphere in the medium recommended by ATCC.
In vitro cell viability. Cell viability was analyzed as follows: cancer cells including pancreatic (PANC-1 and CFPAC-1), lung (HCC827 and H460), stomach (NCI-N87 and KATOIII), urothelial (J82, RT4), prostatic (PC3) and breast (MX-1 and HCC 1806), colorectal (HT-29) and ovarian (SK-OV-3 and OVCAR-3) were grown on 96 well plates to ˜60% confluence, the cells were starved for 24 h in culture medium containing 0.5% FBS. Cells were then treated with GHRH antagonists MIA602 AVR compounds at concentrations of 1, 2.5 or 5 μM, or vehicle (0.1% DMSO) in quintuplicates for 72 hours. The medium was replaced every 48 hours. Cell viability was measured using CellTiter 96 aqueous one solution kit (Promega). Inhibitory effects of tested AVR compounds in comparison to that of MIA602 are presented as inhibitory potency.
Inhibitory effects of selected AVR compounds in comparison to that of MIA602 are presented as inhibitory potency (e.g., percentage of inhibition). […] The cell lines tested including lung cancer HCC827 (FIG. 2A), pancreatic cancer CFPAC-1 (FIG. 2B), stomach cancer N87 (FIG. 2C), colon cancer HT-29 (FIG. 2D), breast cancers MX-1 and HCC1806 (FIGS. 2 E, F). Based on the results of cell proliferation assay after cancer cells were treated with antagonist at concentration of 5 μM for 72H, the relative inhibitory potency of AVR antagonists in comparison to MIA-602 is summarized in Table 3 A and B. Over 60 AVR compounds were tested in 12 cancer cell lines.
Based on the results of cell proliferation assay after cancer cells were treated with antagonist at concentration of 5 µM for 72H, * at concentration of 2 µM for 72 H.

[2] = tested on: CFPAC-1 pancreatic cancer cells; assay: In vitro cell viability, CFPAC-1; type: cell-based, human; settings: Table 3B; 5 μM for 72 H; MIA-602 = 1
In short: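 Potency is reported as percent inhibition of viability compared with the reference antagonist MIA602, measured with CellTiter 96 aqueous one solution reagent. Serum-starved cells (0.5% FBS, 24 h) were treated for 72 h, mostly at 5 μM, otherwise 2 μM.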

[3] = tested on: lung cancer HCC827 xenograft; assay: Xenograft tumor growth in nude mice, HCC827; type: in vivo; settings: Table 4B, Lung Ca HCC827, 7 weeks, 5 μg/day s.c.; for % Inhibition: vs control
Method: (§1) The peptides' activity was compared with GHRH antagonist MIA-602. All statistical analyzses were performed from comparing GHRA antagonists to non-treated tumor (control).
(§2) Peptides and chemicals. GHRH antagonists MIA-602 and AVR-GHRH antagonists (see Table 2 above) were synthesized by solid phase methods and purified by HPLC. The peptides were dissolved in DMSO and further diluted in 10% 1,2-propanediol. The final concentration of peptides was 50 µg/ml in 10% 1,2-propanediol containing 0.1% of DMSO.
(§3) Cell culture. Human cancer cell lines including pancreatic (PANC-1 and CFPAC-1), lung (HCC827 and H460), stomach (NCI-N87), prostate (PC3), brest (MX-1 and HCC-1806), colorectal (HT-29), and ovarian (SK-OV-3 and OVCAR-3) were obtained from the American Type Culture Collection (ATCC) and cultured at 37° C. in a humidified 95% air/5% CO2 atmosphere in the medium recommended by ATCC.
(§4) Xenograft models of human cancers in nude mice. Female athymic (NCr nu/nu) nude mice, 5- to 6-weeks-old, obtained from the Envigo labs (Tampa, Fla.), were housed in laminar airflow cabinets under pathogen-free conditions with a 12-h light/12-h dark schedule, and were fed autoclaved standard chow and water. To generate mice with xenografted tumors, tumor xenografts were initiated by subcutaneous (s.c.) injection of 107 human cancer cells into female nude mice. After about 4 weeks the resulting tumors were dissected and collected after removing necrosis tissues. The tumors were then cut into particles with size of 3 mm3 and transplanted s.c. by trocar needle into experimental animals. When tumors grew to the size of 50-60 mm3 (by volume), mice were randomized into groups and treated daily for 4-8 weeks by subcutaneous administration of 5 μg of GHRH antagonists MIA-602 or AVR-compounds (2-10 μg as indicated), or vehicle solutions (0.1% DMSO in 10% 1,2-propanediol) respectively. Tumor sizes were measured weekly.
(§5) Statistical analysis. One-way ANOVA followed by Bonferroni comparison were performed. Data are expressed as Mean±SEM. To determine statistical significance between animal groups, two-tailed Student's t-test was conducted. Differences were considered significant when p<0.05.
(§6) Results. […] FIG. 1A-N represents in vivo inhibition of tumor growth during the treatment with GHRH antagonist MIA-602 and selected AVR antagonists in nude mice xenografted with various human tumors including pancreatic cancer PANC-1 (FIG. 1A) and CFPAC-1 (FIG. 1I); lung cancer HCC827 (FIGS. 1B, C) and H460 (FIG. 1H); stomach cancer N87 (FIGS. 1D-F); colon cancer HT-29 (FIG. 1G); breast cancer MX-1 and HCC-1806 (FIGS. 1J, K); ovarian cancer SK-OV-3 and OVACAR-3 (FIGS. 1 L, M) and prostate cancer PC3 (FIG. 1N). See also Table 5.

[4] = tested on: stomach cancer N87 xenograft; assay: Xenograft tumor growth in nude mice, N87; type: in vivo; settings: Table 4E, Stomach Ca N87, 4 weeks; for % Inhibition: vs control
Method: as §1, §2, §3
as §4, with “mice were randomized into groups and treated daily for 4-8 weeks by subcutaneous administration” left out
as §5, §6

SMILES | In vitro relative inhibitory potency in comparison to MIA-602, NCI-N87 [1] | In vitro relative inhibitory potency in comparison to MIA-602, CFPAC-1 [2] | Tumor Growth % [3] [%] | % Inhibition [3] [%] | Tumor Growth % ([4]; 2 μg/day s.c.) [%] | % Inhibition ([4]; 2 μg/day s.c.) [%] | Tumor Growth % ([4]; 5 μg/day s.c.) [%] | % Inhibition ([4]; 5 μg/day s.c.) [%]
CCCC[C@H](NC(=O)[C@@H](NC(=O)[C@H](CC(=O)O)NC(=O)[C@H](CCC(N)=O)NC(=O)[C@H](CC(C)C)NC(=O)[C@H](CC(C)C)NC(=O)[C@H](CCCCN)NC(=O)[C@H](CCCNC(=N)N)NC(=O)[C@H](C)NC(=O)[C@H](CO)NC(=O)[C@H](CC(C)C)NC(=O)[C@H](CCC(N)=O)NC(=O)[C@H](CC)NC(=O)[C@H](CC(C)C)NC(=O)[C@@H](NC(=O)[C@H](CCCCN)NC(=O)[C@H](CCCNC(=N)N)NC(=O)[C@H](Cc1ccc(OC)cc1)NC(=O)[C@H](CCCCNC(=N)N)NC(=O)[C@H](C)NC(=O)[C@@H](NC(=O)[C@H](Cc1c(F)c(F)c(F)c(F)c1F)NC(=O)[C@@H](NC(=O)[C@H](C)NC(=O)[C@H](CC(=O)O)NC(=O)[C@@H](CCCNC(=N)N)NC(=O)[C@H](Cc1ccc(O)cc1)NC(=O)CCCCCCCCCCCNC(=O)Cc1c(F)c(F)c(F)c(F)c1F)[C@@H](C)CC)[C@@H](C)O)C(C)C)[C@@H](C)CC)C(=O)N[C@H](CCCNC(=N)N)C(=O)N[C@@H](CCCCNC(=N)N)C(=O)NCCCCCCCCCCCC(N)=O [AVR-352, 5FPhAC-Ada-Tyr-DArg-Asp-Ala-Ile-5FPhe-Thr-Ala-Har-Tyr(Me)-Arg-Lys-Val-Leu-Abu-Gln-Leu-Ser-Ala-Arg-Lys-Leu-Leu-Gln-Asp-Ile-Nle-DArg-Har-Ada-NH2] ({Phenylacetyl(2,3,4,5,6-F5)-12Ado}-Y[dR]DAI[Phe(F5)]TA[hArg]Y(Me)RKVL[Abu]QLSARKLLQDI[Nle][dR][hArg][12Ado]-NH2) | 1.809 | 1.576 | 371.7 | 71.6 |  |  |  | 
CCCC[C@H](NC(=O)[C@@H](NC(=O)[C@H](CC(=O)O)NC(=O)[C@H](CCC(N)=O)NC(=O)[C@H](CC(C)C)NC(=O)[C@H](CC(C)C)NC(=O)[C@H](CCCN)NC(=O)[C@H](Cc1c[nH]cn1)NC(=O)[C@H](C)NC(=O)[C@H](CO)NC(=O)[C@H](CC(C)C)NC(=O)[C@H](CCC(N)=O)NC(=O)[C@H](CC)NC(=O)[C@H](CC(C)C)NC(=O)[C@@H](NC(=O)[C@H](CCCN)NC(=O)[C@H](Cc1c[nH]cn1)NC(=O)[C@H](Cc1ccc(OC)cc1)NC(=O)[C@H](CCCCNC(=N)N)NC(=O)[C@H](C)NC(=O)[C@@H](NC(=O)[C@H](Cc1c(F)c(F)c(F)c(F)c1F)NC(=O)[C@@H](NC(=O)[C@H](C)NC(=O)[C@H](CC(=O)O)NC(=O)[C@@H](CCCNC(=N)N)NC(=O)[C@H](Cc1ccc(O)cc1)NC(=O)CCCCCCCCCCCNC(=O)Cc1c(F)c(F)c(F)c(F)c1F)[C@@H](C)CC)[C@@H](C)O)C(C)C)[C@@H](C)CC)C(=O)N[C@H](CCCNC(=N)N)C(=O)N[C@@H](CCCCNC(=N)N)C(=O)NCCCCCCCCCCCC(N)=O [AVR-553, 5FPhAC-Ada-Tyr-DArg-Asp-Ala-Ile-5FPhe-Thr-Ala-Har-Tyr(Me)-His-Orn-Val-Leu-Abu-Gln-Leu-Ser-Ala-His-Orn-Leu-Leu-Gln-Asp-Ile-Nle-DArg-Har-Ada-NH2] ({Phenylacetyl(2,3,4,5,6-F5)-12Ado}-Y[dR]DAI[Phe(F5)]TA[hArg]Y(Me)H[Orn]VL[Abu]QLSAH[Orn]LLQDI[Nle][dR][hArg][12Ado]-NH2) | 1.26 |  | 1132.0 | 13.7 | 532.7 | 40.3 | 283.3 | 68.3

Reference: patent publication US20210395327A1, “Growth Hormone-Releasing Hormone Antagonists and Uses Thereof” (United States Government As Represented By The Department …, priority 2019, published 2021)
